Laboratory results: patent US10350210B2, “EGFR and ALK dual inhibitor” (PRECEDO PHARMACEUTICALS CO., LTD, priority 2015, dated 2019)

Columns and labels:
A549 [1] = assay: Effect on cell apoptosis (Western Blot, PARP and Caspase 3 cleavage), A549; format: cell-based, human; settings: A549 (wild-type EGFR), 24 hours
From the text: In order to confirm whether the death of cells is through apoptosis or necrosis after administration of drugs, non-small cell lung cancer cell A549 (expressing wild-type EGFR gene), non-small cell lung cancer cell line H1975 (expressing EGFR L858R/T790M double mutant gene), non-small cell lung cancer cell line H3255 (expressing EGFR L858R mutant gene), non-small cell lung cancer cell line H3122 (expressing ALK gene) cell line, and non-small cell lung cancer cell line PC-9 (expressing EGFR delE746_A750 mutant gene) were tested for effect of Compound 1 on cleavage of poly ADP-ribose polymerase PARP which is a DNA repair enzyme and Caspase 3, which were closely related to cell apoptosis. […] Western Blot was used to detect the effect of various concentrations of drugs at various time points on cleavage of poly ADP-ribose polymerase PARP which is a DNA repair enzyme and Caspase 3.

H3255 = assay: Effect on cell cycle (PI staining, flow cytometer), H3255; format: cell-based; settings: H3255 (EGFR L858R), 24 hours
From the text: (§1) In order to study which growth phase the cell was halted after administration of the drugs, five cell lines including non-small cell lung cancer cell line A549 (expressing wild-type EGFR gene), non-small cell lung cancer cell line H1975 (expressing EGFR L858R/T790M double mutant gene), non-small cell Lung cancer cell line PC-9 (expressing EGFR delE746_A750 mutant gene), non-small cell lung cancer cell line H3255 (expressing EGFR L858R mutant gene) and non-small cell lung cancer cell NCI-H3122 (expressing ALK gene) were tested for effect of Compound 1 on cell cycle distribution. Two cell lines including non-small cell lung cancer cell NCI-H3122 (expressing ALK gene) and non-small cell lung cancer cell H1975 (expressing EGFR L858R/T790M double mutant gene) were tested for effect of Compound 10 on cell cycle distribution. […]

A549 [2] = assay: Effect on cell cycle (PI staining, flow cytometer), A549; format: cell-based, human; settings: A549 (wild-type EGFR), 24 hours and 48 hours
From the text: as §1

C=CC(=O)Nc1cc(Nc2ncc(Cl)c(Nc3ccccc3S(=O)(=O)C(C)C)n2)c(OC)cc1N1CCN(CC)CC1 [Compound 1, N-(5-(5-chloro-4-(2-(isopropylsulfonyl)phenylamino)pyrimidin-2-ylamino)-2-(4-ethylpiperazin-1-yl)-4-methoxyphenyl)acrylamide]
cleavage of PARP or Caspase 3 (apoptosis) (A549 [1]): not observed
effect on cell cycle distribution (H3255): halt the cells in G0-G1 phase
effect on cell cycle (A549 [2]): certain effect
